Where “and” joins values, the source holds several entries; their conditions need not be identical. Equal values may be shown once. Entries after “also recorded” stand apart in the source; their conditions may differ. Read-outs that look alike come from different tables or passages of the source.
What was measured:
Type in all cases: cell-based
[1] = tested on: lymphocyte cells; assay: 4CmC-induced adenosine in human lymphocyte / immortalized B cells (Example 3); conditions: for ADO level at maximum of 4CmC dose response, mean±SEM: 2 mM 4CmC, EHNA 0.1 mM
[2] = tested on: lymphocyte cells; assay: 4CmC-induced adenosine in swine lymphocyte cells, nucleosides assay (Example 4); conditions: for EC50: Sus scrofa, Lymphocyte; for peak ADO level upon 4CmC stimulation, mean±SEM: near 1 mM 4CmC
Protocol: Isolation of lymphocytes from whole blood: Lymphocyte cells were isolated from whole blood by Ficoll-Hypaque density gradient centrifugation technique (see Boyum A., Scand. J. Clip. Lab. 97:77-89 (1968)). Isolated lymphocyte cells were dispensed into 3-volume normal Hanks' balanced salt solution (HBSS) and centrifuged (10 minutes at 1000 RPM). The pellet was re-suspended in HBSS to lyse contaminating erythrocytes and spun. The later step was repeated one more time. To maintain simplicity of the protocol for possible MH diagnostic purposes no further purification was attempted. Lymphocyte cells were then cultured in RPMI-1640 media supplemented with 10% fetal bovine serum, […] penicillin and 2 mM glutamine. Cell cultures were incubated at 37° C. in a humidified chamber with 5% CO2. All experiments were completed within 4 days after isolation of lymphocyte cells from whole blood samples.
Nucleosides Assay Protocol: Briefly, lymphocyte cells (1−2×10^6 cells/test) were suspended in HBSS with or without Ca^2+/Mg^2+ (as indicated for each experiment) plus 0.1% bovine serum albumin (BSA). Experiments were carried out in the presence of the adenosine deaminase inhibitor erythro-9-(2-hydroxy-3-nonyl) adenine-HCl ([…]) to prevent deamination of adenosine to inosine (Lorbar et al., J Mol Cell Cardiol 31: 401-12 (1999)) and incubated at 37° C. for 10 minutes followed by treatment with different 4CmC concentrations (0.05-10 mM). Further incubation at 37° C. for an additional 45 minutes was also carried out. Final volumes of the test tubes were adjusted to 0.2 ml using HBSS buffer. Termination of the cell activity and purification of samples was accomplished by addition of 0.1 ml 12% perchloric acid followed by centrifugation at 5000 RPM for 10 minutes. Aliquots of the supernatant (50 μl) were assayed for adenosine and inosine content using HPLC.
HPLC Conditions: The HPLC system consisted of a Waters Symmetry C18 column (4.6×250 mm) and mobile phase of 94% KH2PO4 (50 mM, pH 4.6) containing 1-heptanesulfonic acid (0.5 mM) and 6% acetonitrile. Under these conditions, retention times for inosine and adenosine were 4 and 7.3 min, respectively. Peak width of inosine and adenosine were 18 and 36 seconds, respectively. Eluting compounds were detected by their absorbance at 254 nm using a Waters photodiode array detector (model 996). Sample adenosine and inosine concentrations were obtained using a calibrated standard curve of concentrations vs. peak area.
Statistics: Sample nucleosides concentrations were normalized to represent per 1 million cells and presented as means±SEM. The t-test was applied to test for differences between agonist-induced nucleosides in lymphocyte cells from MHS and normal swine. A P<0.05 considered to indicate statistical significance.

[3] = tested on: lymphocyte cells; assay: 4CmC-induced adenosine/inosine in human peripheral blood lymphocytes, HPLC (Example 1); conditions: for 4CmC response (adenosine plus inosine) in MHS group relative to MHN or normal groups: EHNA 0.1 mM
Protocol: FIG. 2 is a dose-response curve for 4-chloro-m-cresol (4CmC)-induced intracellular adenosine plus inosine in lymphocyte cells from malignant hyperthermia susceptible (MHS, n=11), not-susceptible (MHN, n=9), and normal (n=7) subjects. Lymphocyte cells were treated with 4CmC in the presence of an inhibitor of adenosine deaminase (EHNA, 0.1 mM). After purification, aliquot was analyzed for adenosine and inosine content using HPLC. Adenosine plus inosine values in the absence of 4CmC are plotted against X=0.02 mM to allow logarithmic display of the entire dose response curve. Adenosine plus inosine levels were normalized to reflect per 1 million cells. 4CmC responses at 1, 2, and 5 mM on MHS groups are about 4, 4, and 6 fold higher than the corresponding values in MI-1N or normal groups with values of 6×10^−5, 8×10^−5, and […], respectively. There were no overlaps between the MHS group and the MHN or normal groups.
Lymphocyte cells from MHS (n=11), MHN (n=9) and normal (n=7) subjects were suspended in normal HBSS plus 0.1% BSA and treated with adenosine deaminase inhibitor (EHNA, 0.1 mM). After 10 minutes of incubation at 37° C., cells were treated with HBSS, with and without the RyR1 agonist 4CmC (5 mM) and incubated at 37° C. for an additional 45 minutes. After termination and purification of the samples, aliquots (50 μl) were assayed in duplicate for adenosine and inosine content using HPLC. Concentrations are normalized to per 1 million cells. The sum of the adenosine plus inosine level is about 6-fold higher than corresponding values in normal and MHN cells.
Pilot studies were conducted using blood samples from human subjects in the following groups: Group 1: MHS subjects with positive CHCT and/or having a known MH associated mutation (n=11); Group 2: non-MH susceptible with negative CHCT results (MHN) (n=9), and Group 3: normal subjects who had not undergone CHCT and had no family history of MH (n=7).
Briefly, venous blood samples (20 ml) were drawn from patients using heparinized blood collection tubes. Peripheral blood lymphocyte cells were isolated from whole blood by the Ficoll-Hypaque centrifugation technique. Briefly, diluted anti-coagulated blood is layered over Ficoll-Hypaque and centrifuged. Mononuclear cells consisting of lymphocytes and some monocytes are recovered at the interface. The cells were washed with the Flanks' balanced salt solution (HBSS) buffer, re-suspended in the HBSS buffer, and treated with different concentration of 4CmC at 37° C. in the presence and/or absence of inhibitor of adenosine deaminase erythro-9-(2-hydroxy-3-nonyl)adenine (EHNA) for about 30 minutes. The cells were then purified by adding an equal volume of 6% HClO4 and centrifuged at 6000 rpm for 10 minutes. Aliquots of the supernatant were analyzed for adenosine and inosine content with HPLC using a Waters Separation Module (Model 2695) equipped with Waters Photodiode Array Detector and Empower software.

In the case of `Cc1cc(O)ccc1Cl` [4CmC, 4-chloro-m-cresol], the “ADO level at maximum of 4CmC dose response, mean±SEM” value ([1]; MHS cells) is reported as 1.71 ± 0.13 µM, the “ADO level at maximum of 4CmC dose response, mean±SEM” value ([1]; normal cells) is reported as 0.61 ± 0.11 µM and the “4CmC-induced adenosine in MHS (CHCT-positive) versus normal / CHCT-negative lymphocyte cells” value ([1]; FIG. 5 and 6) is reported as “significantly higher; also recorded: significantly greater”. For the same compound, the “4CmC concentration at which ADO levels maximized” value ([1]; human lymphocytes) was 2 mM, the “4CmC-induced ADO in lymphocyte cells from MHS swine versus normal swine” value [2] was “significantly greater; also recorded: significantly higher” and the “4CmC-induced ADO, mean±SEM” value ([2]; 1 mM 4CmC, Ca2+/Mg2+-free HBSS, normal swine (n=6)) was 0.244 ± 0.026 µM. The “basal plus 4CmC-induced ADO range” value ([2]; 1 mM 4CmC, MHS swine cells) was 0.250 to 0.537 µM, the “4CmC-induced ADO, mean±SEM” value ([2]; 1 mM 4CmC, normal HBSS, normal swine (n=6)) was 0.326 ± 0.023 µM and the “increase in ADO formation in the presence of extracellular Ca2+” value ([2]; 1 mM 4CmC, normal swine) was 25.2±5.1%. The “basal plus 4CmC-induced ADO range” value ([2]; 1 mM 4CmC, normal swine cells) was 0.145 to 0.209 µM, the “4CmC-induced ADO, mean±SEM” value ([2]; 2 mM 4CmC, absence of extracellular Ca2+, normal swine) was 0.167 ± 0.018 µM and the “4CmC-induced adenosine relative to basal adenosine level” value ([2]; 2 mM 4CmC, no FCCP, Ca2+/Mg2+ free HBSS, normal swine (n=5)) was 5.8 fold. The “increase in 4CmC-induced ADO formation in the presence of extracellular Ca2+” value ([2]; 2 mM 4CmC, normal swine) was 41±3.3%, the “4CmC-induced ADO, mean±SEM” value ([2]; 2 mM 4CmC, presence of extracellular Ca2+, normal swine) was 0.284 ± 0.023 µM and the “increase in sensitivity to 4CmC in the MHS cell population” value ([2]; MHS vs normal swine cells) was about 60%. The EC50 ([2]; read-out: estimated EC50 of 4CmC for ADO formation, MHS swine cells) was 550 ± 60 µM, the EC50 ([2]; read-out: estimated EC50 of 4CmC for ADO formation, normal swine cells) was 340 ± 40 µM and the “peak ADO level upon 4CmC stimulation, mean±SEM” value ([2]; normal HBSS, MHS swine cells (n=7)) was 0.389 ± 0.033 µM. The “peak ADO level upon 4CmC stimulation, mean±SEM” value ([2]; normal HBSS, normal swine cells (n=7)) was 0.199 ± 0.005 µM, the “4CmC concentration at which ADO levels peaked” value ([2]; swine lymphocytes, normal HBSS) was about 1 mM and the “4CmC response (adenosine plus inosine) in MHS group relative to MHN or normal groups” value ([3]; 1 mM 4CmC) was “about 4 fold”. For the same compound, the “4CmC response (adenosine plus inosine) in MHS group relative to MHN or normal groups” value ([3]; 2 mM 4CmC) was “about 4 fold”, the “stimulation of adenosine plus inosine formation in control and MHN samples” value ([3]; 5 mM 4CmC (maximum effective dose)) was “did not, or minimally stimulated” and the “stimulation of nucleosides formation by 4CmC in MHS samples” value ([3]; 5 mM 4CmC, FIG. 3) was about 6 fold. For the same compound, the “adenosine plus inosine level after 4CmC treatment, mean±SEM” value (from here on “adenosine plus inosine level … mean±SEM”) ([3]; 5 mM 4CmC, MHN group (n=9)) was 5.4 ± 0.6 µM, the “adenosine plus inosine level … mean±SEM” value ([3]; 5 mM 4CmC, MHS group (n=11)) was 35.6 ± 3.1 µM and the “adenosine plus inosine level … mean±SEM” value ([3]; 5 mM 4CmC, normal group (n=7)) was 5.6 ± 1 µM. The “[Adenosine] μM Post 5 mM 4CmC” value ([3]; lymphocytes of single normal subjects, 5 mM 4CmC) was 0.220 µM and 0.144 µM and 0.246 µM and 0.154 µM and 0.276 µM and 0.177 µM and 0.268 µM, the “4CmC concentration at which inosine release reaches saturation” value ([3]; without EHNA) was “about 5 mM” and the “4CmC concentrations that stimulate inosine release dose-dependently” value ([3]; without EHNA) was “above 1 mM”. For the same compound, the “effect of 4CmC on adenosine formation” value ([3]; without adenosine deaminase inhibitor) was “not affected”.

— US8846330B2, “Methods and kits for the diagnosis of RyR1-related diseases” (The Henry M. Jackson Foundation for the Advancement of …, priority 2008, dated 2014)
